Reference: patent publication US20080113003A1, “Sinapic Acid Supplementation” (UNIVERSITY OF SASKATCHEWAN, priority 2004, published 2008)
Marks after values point to notes of the source that are not given here.

What was measured:
[1] = Example 1: apparent nutrient digestibility (AME, ileal and fecal protein); format: in vivo, broiler chickens; settings: for AME (apparent metabolizable energy): excreta 16-18 d
Procedure: (§1) Sample Analyses. Acid insoluble ash (AIA, Celite) was used as an indigestible marker for the determination of the apparent digestibility of metabolizable energy, protein (ileal and fecal) and SA. AIA was determined by using the procedure of Vogtmann et al, 1975 Br. Poult. Sci. 67:641-646. The gross energy was measured by a traditional bomb calorimeter, and crude protein was analyzed by a Leco FP-528™ protein analyzer (Model No. 601-500-100, Serial#3211, LECO Corporation, 3000 Lakeview Avenue, St. Joseph Mich. 49085-2396 USA). Based on the assay of nutrient and AIA in feed, excreta, and ileal content, the nutrient digestibility was determined.

[2] = tested on: bacterial populations in the ileum and ceca; test: Example 2: volatile fatty acid content of ileal and cecal digesta (0.05-0.20% sinapic acid); format: in vivo, broiler chickens; settings: sinapic acid 0.05-0.20% in diet
Procedure: Bird management and diet composition were as described in Example 1. Volatile Fatty Acid (VFA) Measurement. The status of bacterial populations in the ileum and ceca of experimental birds was assessed by examining VFA production. The birds were killed by lethal injection with T-61TM(Euthanasia solution) and the ileal and cecal digesta of three birds within each replication were collected in a well-sealed plastic centrifuge tube and then frozen at -20° C. Ileal digesta were collected from the terminal ileum (distal half excluding the last 2 cm anterior from the ceca). Samples within a replication were pooled and mixed well prior to VFA measurement. Analyses of VFA (acetic, propionic, isobutyric, butyric, isovaleric, and valeric acid) were conducted by Gas Chromatography (GC) (Varian Star 3400) using a StabilwaxTM-DA column (0.25 mm ID, 0.25 μm […] Corporation, 110 Benner Circle, Bellefonte Pa., 16823-8812 USA) and based on the procedure of Choct et al. (Br. Poult. […] A concentration of 2 mmol/L is acceptable for the internal standard in intestinal content samples. One ml of standard solution was added to 0.2 (cecal) or 0.5 (ileal) g of sample and vortexed until well-mixed. The mixture was then centrifuged at 28,000 g for 10 minutes and the supernatant pipetted into GC vials for analysis. Statistical Analyses. […]

[3] = tested on: cecal microbial community; test: Example 3: microbial community assay, % G+C profile of cecal digesta; format: in vivo, broiler chickens; settings: dose dependent, sinapic acid 0.025-0.10% in diet
[4] = Example 3: feed consumption, weight gain and diet AME; format: in vivo, broiler chickens; settings: sinapic acid 0.025% in diet
Procedure: Broiler chickens were fed a corn-soybean meal based diet either unsupplemented or supplemented with sinapic acid at a level of 0.025%, 0.05% or 0.1%. After the supplementation period, microbial analysis was conducted. This Example was designed to confirm the results of Example 2, to assess effects on microbial community, and to repeat the VFA measurement by increasing the chick numbers within the replication.
Ninety-six ([…]) male broiler chicks (Peterson X Hubbard) were randomly assigned to four treatments, with six birds in each replication and four replications for each treatment. A corn-soybean based diet served as a control, while another three diets were supplemented with graded levels of sinapic acid (0.025, 0.05 and 0.10%). Bird management was as previously described in Example 1. Volatile fatty acid measurement was conducted as described in Example 2, except that digesta was pooled from six birds per replication.

[5] = Example 1: performance of broiler chickens on dietary sinapic acid (gain, feed intake, gain/feed); format: in vivo; settings: 0-18 d of age
From the text: Bird management. Broilers were housed in battery brooders.

[6] = Example 1: apparent sinapic acid digestibility (HPLC of feed, excreta, digesta); format: in vivo, broiler chickens; settings: dietary sinapic acid 0.025-0.10%
Procedure: as §1
The analysis of sinapic acid in feed, excreta and digesta samples was conducted by HPLC using a reversed-phase column under the fluorescence detection method. The mobile phase was isocratic, based on 6% MeOH solution with 20 mmol K2HPO4 as basic buffer. For feed and excreta samples, the analysis was conducted at pH 9.5, however, for ileal and cecal samples, the pH was changed to 9 to obtain better background separation and chromatograms.

## COc1cc(C=CC(=O)O)cc(OC)c1O [Sinapic Acid, 4-hydroxy-3,5dimethyoxy-cinnamic acid]
[1]; sinapic acid 0.025% in diet
  Fecal protein digest.: 68.5%
  Ileal protein digest.: 81.5%
  AME (apparent metabolizable energy): 3412 kcal/kg
[1]; sinapic acid 0.05% in diet
  Fecal protein digest.: 66.3%
  Ileal protein digest.: 78.8%
  AME (apparent metabolizable energy): 3418 kcal/kg
[1]; sinapic acid 0.10% in diet
  Fecal protein digest.: 66.5%
  Ileal protein digest.: 80%
  AME (apparent metabolizable energy): 3442 kcal/kg
[2]
  reduction of acetic acid level in cecal contents compared with control: 15-20%
  reduction of total VFA level in cecal contents compared with control: 15-20%
[3]
  amounts of cecal microbes in the range % G+C 40-54: decreased
  relative abundance of cecal bacteria in the range % G+C 20-30: increased
  relative abundance of cecal bacteria in the range % G+C 55-69: increased
[4]
  feed consumption: increased
  increase in diet AME: 2%
  increase in weight gain: 6%
[5]; sinapic acid 0.025% in diet
  Feed intake/bird: 781^a g
  Gain: 561 g
  Gain/feed: 0.72
[5]; sinapic acid 0.05% in diet
  Feed intake/bird: 738^ab g
  Gain: 545 g
  Gain/feed: 0.74
[5]; sinapic acid 0.10% in diet
  Feed intake/bird: 689^b g
  Gain: 491 g
  Gain/feed: 0.71
[6]
  sinapic acid in the cecal digesta: no sinapic acid found
